This test relates to cockroaches. The experiment in a line: Biological knockdown of cockroaches on glass plates sprayed with diluted d-phenothrin emulsions I, J and neat d-phenothrin. Type of test: in vivo. The note with it: 30 mg active pesticide/m^2. The protocol: Samples of the emulsions I and J and neat d-phenothrin are diluted in water and sprayed onto a glass plates to give a concentration of 30 mg active pesticide/m^2. The samples are tested for biological knockdown of cockroaches for 15 minute and 24 hour exposure on the plates and the effectiveness of the pesticide on the treated plates monitored periodically under light and dark conditions. The results of the tests conducted in daylight are shown in Table 3. and those conducted in the dark are shown Table 4.

Where [1] appears, read: daylight, 7 days after application to plates.
The mark [2] stands for this setting: daylight, 14 days after application to plates.
The mark [3] stands for this setting: daylight, 21 days after application to plates.
Setting [4] is: daylight, 49 days after application to plates.
Where [5] appears, read: daylight, 63 days after application to plates.
[6] abbreviates: daylight, 91 days after application to plates.

SMILES strings stand for the structures.

As to `CC(C)=CC1C(C(=O)OCc2cccc(Oc3ccccc3)c2)C1(C)C` (stereo not drawn) [phenothrin, d-phenothrin], the “% Kill after 15 minute exposure” value is reported as 100% (dark, 1 day after application to plates); 100% (dark, 7 days after application to plates); 100% (dark, 14 days after application to plates); 100% (dark, 21 days after application to plates); 100% (dark, 49 days after application to plates); 100% (dark, 63 days after application to plates). Moreover, the “% Kill after 15 minute exposure” value was 100% (dark, 91 days after application to plates); 100% (daylight, 1 day after application to plates); 0% under setting [1]; 0 (0) % under setting [2]; 10% under setting [3]; 10 (10) % under setting [4]. For the same compound, the “% Kill after 15 minute exposure” value is reported as 10% under setting [5] and 0 (0) % under setting [6]. In addition, the “% Kill after 24 hour exposure (in brackets)” value is reported as 10% under setting [1]; 0 (0) % under setting [2]; 0% under setting [3]; 10 (10) % under setting [4]; 40% under setting [5]; 0 (0) % under setting [6].

Values taken from patent publication US20060247323A1, “Stabilisation of light sensitive substances” (priority 2000, published 2006).
